According to US11155580B2, “Modified proteins and methods of use thereof” (YALE UNIVERSITY, priority 2013, dated 2021):
pEC50: −log10 of the molar value. “Also recorded” adds a separate entry of the source. Where no end group is shown, it is not given here. fluorescein = fluorescein label; rhodamine = not defined here; Rhod = not defined here

Assays:
HeLa cells [1] = assay: Colocalization of rhodamine and fluorescein labeled miniature proteins and peptides; format: cell-based; details: 1 μM each, 30 min, 37° C.
Description: HeLa cells were treated with a mixture of rhodamine—(indicated by the superscript R) and fluorescein—(indicated by the superscript F)—labeled miniature protein or peptide (1 μM each) for 30 min at 37° C., washed, and then imaged using confocal microscopy. […] The remaining molecules show high fluorescence, and molecules sharing the same sequence (but different labels) show high degrees of overlap, with R>0.68. The amino acid sequence of Arg8 is provided in SEQ ID NO:68.
Colocalization between rhodamine and fluorescein labeled miniature proteins and peptides, or between rhodamine labeled miniature proteins and markers of endocytosis was completed using confocal microscopy. […] Alexafluor-488-transferrin was detected using a 488 nm laser and a 520 nm long pass filter; tetraethylrhodamine and Alexafluor-546-transferrin were detected using a 546 nm laser line and a 580 nm long pass filter, Hoescht 33342 was detected using a 405 nm laser line and a 450 nm long pass filter. […] The fraction of rhodamine signal overlapping with EGFP signal (R E G) was calculated using Mander's coefficient and automatic thresholding. […]

[2] = system: HeLa cells transfected with GR-GFP; assay: GR-GFP translocation assay (cytosolic access of Dex-labeled molecules); format: cell-based; details: for effect of bafilomycin on TR: 200 nM bafilomycin pretreatment 1 h; for effect of bafilomycin on TR / effect of EIPA on TR / effect of dynasore on TR / effect of methyl-β-cyclodextrin (MβCD) on TR: then 1 μM; for translocation ratio (TR) / effect of EIPA on TR / effect of dynasore on TR / effect of methyl-β-cyclodextrin (MβCD) on TR: 30 min; for translocation ratio (TR): HeLa cells expressing GR-GFP; for effect of EIPA on TR: 50 μM EIPA pretreatment 30 min; for effect of dynasore on TR: 80 μM dynasore pretreatment 30 min; for effect of methyl-β-cyclodextrin (MβCD) on TR: 5 mM MβCD pretreatment 30 min
Description: HeLa cells transfected with pK7-GR-GFP were plated in Matrical plates as described above. To label nuclei, the media was replaced with HKR buffer containing 300 nM Hoescht and the cells incubated for 30 min at 37° C.
Cells were then analyzed as described above.
HeLa cells transfected with pK7-GR-GFP for 24-36 hr were plated (10^4/well in 200 μL) the day prior to experiments in 96 well glass bottom plates (Matrical). The media was replaced with HKR buffer containing 300 nM Hoescht and the cells incubated for 30 min at 37° C. […] The cells were incubated for a further 30 min at 37° C. before epifluorescence imaging using a Zeiss Axiovert 200M microscope fitted with a mRM digital camera, a 63×1.3NA PlanApo objective and an EXFO-Excite illumination source.
Uptake was allowed to proceed for an additional 30 min at 37° C. before analysis by epifluorescence images as described elsewhere herein.
The image analysis algorithm used by CellProfiler is customizable and contained within a ‘Pipeline’ that describes a series of image manipulation and evaluation steps, such as reading the image, adjusting the intensity, and identifying objects. Each step has several options. […] Using the image of Hoescht fluorescence and Otsu's method of automatic thresholding, nuclei were identified and segmented using 3 class thresholding. The middle class was assigned to background. Closely approximated objects were separated using ‘Laplacian of Gaussian’ modeling, and touching nuclei were divided using the ‘shape’ option. Nuclear regions were expanded by 2 μm to generate an enlarged region. The nuclear region was subtracted from enlarged region to generate a ring surrounding the nucleus (surround). […] The ratio of the median intensities of the nuclear and surrounding region of the GFP or mCherry (as appropriate) image were collected for every cell examined. Those cells falling below a threshold of intensity (10% of the maximum intensity of the image) were discarded as ‘untransfected’. Typically, 20-60 transfected cells from 15-30 images were examined for each experimental condition.

[3] = system: HeLa cells transfected with pGR-mCherry and Rab5-GFP or Rab5Q79L-GFP; assay: GR-mCherry translocation in cells expressing Rab5-GFP or Rab5Q79L-GFP; format: cell-based; details: for effect of Rab5Q79L on ability to reach the cytoplasm / TR: overexpression of Rab5Q79L-GFP
Description: Cotransfected cells expressing Rab-GFP fusions and pGR-mCherry were identified via their characteristic pattern of green and red fluorescence. The translocation ratio was determined using median values of mCherry fluorescence within the nucleus and surrounding region using CellProfiler.
HeLa cells transfected for 24-36 hr with pGR-mCherry and either Rab5-GFP or Rab5Q79L-GFP were plated (10^4/well in […]) the day prior to experiments in 96 well glass bottom plates (Matrical). The cells were washed with HKR buffer and the nuclei labeled using Hoescht as above. […] The cells were incubated for a further 30 min at 37° C. before imaging. Cells that had been cotransfected with EGFP fusions were identified via their characteristic pattern of green and red fluorescence. To evaluate the extent of GR activation, epifluorescence images were obtained as described above, except the fluorescence of pGR-mCherry was also visualized using Zeiss Filter Set #43 (ex BP 545/25 nm, FT 570, em BP 605/70 nm).
The image analysis algorithm used by CellProfiler is customizable and contained within a ‘Pipeline’ that describes a series of image manipulation and evaluation steps, such as reading the image, adjusting the intensity, and identifying objects. Each step has several options. […] Using the image of Hoescht fluorescence and Otsu's method of automatic thresholding, nuclei were identified and segmented using 3 class thresholding. The middle class was assigned to background. Closely approximated objects were separated using ‘Laplacian of Gaussian’ modeling, and touching nuclei were divided using the ‘shape’ option. Nuclear regions were expanded by 2 μm to generate an enlarged region. The nuclear region was subtracted from enlarged region to generate a ring surrounding the nucleus (surround). The diameter of the surrounding region was chosen to be 2 μm larger than the nucleus, within the range (1-3 μm) used by previously reported high content screens (Ding et al., 1998, J Biol Chem. 273:28897-28905; Peeraniet al., 2007, EMBO J. 26:4744-4755). The ratio of the median intensities of the nuclear and surrounding region of the GFP or mCherry (as appropriate) image were collected for every cell examined. Those cells falling below a threshold of intensity (10% of the maximum intensity of the image) were discarded as ‘untransfected’. Typically, 20-60 transfected cells from 15-30 images were examined for each experimental condition.

U2OS(GIGI) cells = assay: GIGI in lysates, stably transfected U2OS(GIGI) cells; format: cell-based
Excerpt: RFUs are expressed±standard deviation (Excel). The maximum induction level is defined as RFUmax. Data were processed using Kaleidagraph and GraphPad Prism software. RFU=([I530]/[I580])−([I′530]/[I′580]) (1)
Y=Ymin+(Ymax−Ymin)/(1+10^logEC50-X) (2)

Saos-2(GIGT) cells = assay: GIGT high-content imaging in stably transfected Saos-2(GIGT) cells; format: cell-based, human
Description: Saos2(GIGT) cells were plated onto 384-well plates (2,500 cells/well) in 40 μL of full McCoy's 5A and allowed to adhere overnight. […] Following treatment, cells were fixed with 4% paraformaldehyde for 20 min at room temperature and washed with PBS. […] Translocation ratios were determined using Acapella high content imaging and analysis software, with a script that processed the images in a manner similar to the CellProfiler pipeline described in the Supporting Information. Each data point represents 30-60 images containing over 100 cells.

HeLa cells [4] = assay: Colocalization with Alexa-488-transferrin (Tf488), live cell confocal microscopy; format: cell-based; details: 1 μM, 30 min
Description: To examine the colocalization of rhodamine labeled miniature proteins or peptides with Alexa-488-transferrin (Tf488), HeLa cells were plated (200 μl, 10^4 cells/well, 96 well glass bottom plates, Matrical) the day prior to experiments. The media was replaced with 150 μL Hepes-Krebs-Ringer's (HKR) buffer (140 mM NaCl, 2 mM KCl, 1 mM CaCl2, 1 mM MgCl2, 10 mM Hepes pH 7.4) containing 1 μM miniature protein or 25 nM Alexa-488-transferrin (Molecular Probes) and the cells incubated at 37° C. for 30 min. The cells were then rinsed twice with 200 μL, HKR buffer and nuclei were labeled by overlaying 200 μL HKR containing 300 nM Hoechst 33342 (Molecular Probes Cat. # H3570) for 5 minutes. Images of cells were acquired using a PerkinElmer LiveView spinning disk confocal microscope fitted with a 60×1.2 NA objective. Colocalization with Rab-GFP fusions was examined in an analogous way using HeLa cells transfected with the appropriate expression plasmid.
Colocalization between rhodamine and fluorescein labeled miniature proteins and peptides, or between rhodamine labeled miniature proteins and markers of endocytosis was completed using confocal microscopy. Live cell confocal microscopy was conducted using a PerkinElmer LiveView spinning disk confocal microscope fitted with heated microscope enclosure (maintained at 37° C.), a 60×1.2 NA objective, laser illumination, a Nipkow CSU-1× spinning disk, and a Hammamatsu CS9100 EMCCD camera operated using Velocity software. Alexafluor-488-transferrin was detected using a 488 nm laser and a 520 nm long pass filter; tetraethylrhodamine and Alexafluor-546-transferrin were detected using a 546 nm laser line and a 580 nm long pass filter, Hoescht 33342 was detected using a 405 nm laser line and a 450 nm long pass filter. Images were processed for presentation by using the ‘subtract background’ option and linear contrast adjustments in Image J. All adjustments were applied uniformly to the entire image. Colocalization analysis was performed using the JACOP plugin (Bolte and Cordelières, 2006), available on the ImageJ website. The fraction of rhodamine signal overlapping with EGFP signal (R E G) was calculated using Mander's coefficient and automatic thresholding. Pearson's correlation coefficient (R) was also obtained using the JACOP plugin.

HeLa cells [5] = assay: HPLC analysis of cytosolic extracts prepared with streptolysin O; format: cell-based; details: HeLa cells treated with rhodamine labeled molecule
Description: To generate cytosolic extracts, HeLa cells were treated with streptolysin O (SLO), a well characterized bacterial toxin that creates pores in the plasma membranes of target cells (Walev et al., 2002, FASEB 16:237-239). […] Moreover, when the toxin is added to cultured cells at 4° C. and washed with PBS before raising the temperature to 37° C., pores are created only in the plasma membrane and the release of ER, golgi, or endolysosomal contents are avoided (Androlewicz et al., 1993, Proc Natl Acad Sci USA 90:9130-9134).
First, selective release of the cytoplasmic contents of HeLa cells using the published procedures was verified. HeLa cells were treated with 20 μg/mL SLO in PBS containing 5 mM DTT (20 min, 4° C.), washed (three PBS washes, 150 μL each), resuspended in PBS, and incubated at 37° C. for 15 min, after which 1.5 μM propidium iodide (PI), a marker of permeabilized cell membranes, was added.

cathepsin B = cathepsin B (Homo sapiens, UniProt P07858); assay: Resistance to acid proteases: cathepsin B; format: in vitro ADME; details: 50 pmol, 30 min, 37° C., pH 5
Description: 50 pmol aPPR, 5.2R, 5.3R, ZF5.3R, TatR (SEQ ID NO:67), or Arg8R (SEQ ID NO:68) were incubated with 5 pg cathepsin B, D, or L for 30 min at 37° C. in 10 μL of 20 mM sodium phosphate buffer (pH 5) containing 150 mM NaCl. At the end of the incubation, the reaction was stopped by adding 40 μL of a solution containing a 84:15:1 ratio of water:EtOH:TFA before analysis by HPLC.

| Substance | cell fluorescence (HeLa cells [1]) | effect of bafilomycin on TR [2] | translocation ratio (TR) ([2]; 1 μM) | effect of EIPA on TR [2] | effect of dynasore on TR [2] | effect of methyl-β-cyclodextrin (MβCD) on TR [2] | effect of Rab5Q79L on ability to reach the cytoplasm / TR [3] | material found in SLO cytoplasmic extracts (HPLC) (HeLa cells [5]) | also measured |
| --- | --- | --- | --- | --- | --- | --- | --- | --- | --- |
| GPSQPTYPGDDAPVEDLIRFYNDLQQYLNVVTRHRYC^FLU-NH2 (GPSQPTYPGDDAPVEDLIRFYNDLQQYLNVVTRHRYC(fluorescein)-NH2) [aPPF] | low fluorescence | – | – | – | – | – | – | – | – |
| K^DexGRKKRRQRRRPPQY-NH2 (K(dexamethasone)GRKKRRQRRRPPQY-NH2) [TatDex] | – | completely blocked the increase in TR | 2.85±0.10 | reduced, to background levels | reduced, to background levels | reduced, to background levels | blocked the ability | – | increase in TR blocked by wortmannin ([2]; 200 nM wortmannin, 1 μM): 72%; TR (GR-mCherry), Rab5Q79L-GFP expressing cells ([3]; 1 μM, 30 min, Rab5Q79L-GFP): 1.26±0.03; TR (GR-mCherry), Rab5-GFP expressing cells ([3]; 1 μM, 30 min, wild-type Rab5-GFP): 1.57±0.04; eGFP expression (U2OS(GIGI) cells; 1 μM, lysates): significant eGFP expression; translocation ratio (TR), GR★-GFP (Saos-2(GIGT) cells; 1 μM, 30 min, Saos-2(GIGT) cells): 2.28±0.24 |
| K^DexWYSCNVCGKAFVLSRHLNRHLRVHRRAT-NH2 (K(dexamethasone)WYSCNVCGKAFVLSRHLNRHLRVHRRAT-NH2; cysteine pairing not given here) [ZF5.3Dex] | – | reduced to background levels | 2.4±0.09 | reduced to background levels | reduced to background levels | reduced to background levels | – | – | EC50 fold lower than that of ZFN1-4Dex (U2OS(GIGI) cells): 70-80 fold; EC50 fold lower than that of wtZFDex (U2OS(GIGI) cells): 100 fold; pEC50 (U2OS(GIGI) cells; Dex-labeled peptides, 24 h, lysates, read-out: EC50 (eGFP expression, GIGI)): 8.85; GR★-GFP translocation (GIGT) compared with wtZF and all four ZFN domains (Saos-2(GIGT) cells; GIGT): significantly higher levels; cells expressing GR★-GFP with significant translocation ratios (Saos-2(GIGT) cells; GIGT): greater than 99% |
| K^RhodGPSQPTYPGDDAPVEDLIRFYNDLQQYLNVVTRHRY-NH2 (K(rhodamine)GPSQPTYPGDDAPVEDLIRFYNDLQQYLNVVTRHRY-NH2; reading uncertain; also: printed as K^RhodGPSQPTYPGDDAPVEDLIRFYNDLQQYLNVVTRHRY-NH2) [aPPR] | low fluorescence | – | – | – | – | – | – | little to no fluorescent material; also recorded: little or no aPPR is observed | intracellular red fluorescent signal (HeLa cells [4]): little or no red fluorescent signal |
| K^RhodWYSCNVCGKAFVLSRHLNRHLRVHRRAT-NH2 (K(Rhod)WYSCNVCGKAFVLSRHLNRHLRVHRRAT-NH2; cysteine pairing not given here; reading uncertain; also: printed as KRhodWYSCNVCGKAFVLSRHLNRHLRVHRRAT-NH2) [ZF5.3R] | – | – | – | – | – | – | unaffected | can be recovered from cytosolic extracts; also recorded: a single peak with the same retention time as the starting material | effect of wortmannin on TR ([2]; wortmannin treatment): unaffected; degradation by cathepsin B (HPLC) (cathepsin B): little or no degradation |
